From PMC9558907, “Synthesis and pharmacological evaluation of newly detected synthetic cannabinoid receptor agonists AB-4CN-BUTICA, MMB-4CN-BUTINACA, MDMB-4F-BUTICA, MDMB-4F-BUTINACA and their analogs” (Frontiers in Psychiatry, 2022)

Tests used:
human CB1 [1] = target: T1, human CB1 (Homo sapiens, UniProt P21554); assay: fluorescence-based membrane potential assay (GIRK activation) in AtT20 cells; assay type: cell-based; parameters: expressed in transfected cells; host or cells: mouse AtT20 FlpIn cells; details: for hCB1 Emax ±SEM: normalised to 1 μM CP55,940; for hCB1 maximal response at 10 μM (footnote d): highest concentration tested, curve not fitted
T1 sequence (P21554 whole entry): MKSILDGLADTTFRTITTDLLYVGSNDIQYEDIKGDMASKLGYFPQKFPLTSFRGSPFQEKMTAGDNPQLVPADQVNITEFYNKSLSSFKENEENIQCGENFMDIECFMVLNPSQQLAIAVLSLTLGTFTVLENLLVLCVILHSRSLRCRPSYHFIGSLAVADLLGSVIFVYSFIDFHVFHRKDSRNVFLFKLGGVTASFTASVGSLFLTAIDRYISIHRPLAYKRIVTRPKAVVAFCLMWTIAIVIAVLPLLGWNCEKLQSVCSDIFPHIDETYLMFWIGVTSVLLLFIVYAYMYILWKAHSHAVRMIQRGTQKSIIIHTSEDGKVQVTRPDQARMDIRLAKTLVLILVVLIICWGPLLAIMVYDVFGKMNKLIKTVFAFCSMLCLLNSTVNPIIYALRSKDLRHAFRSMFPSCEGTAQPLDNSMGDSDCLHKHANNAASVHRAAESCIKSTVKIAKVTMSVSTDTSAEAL

human CB2 [2] = target: T2, human CB2 (Homo sapiens, UniProt P34972); assay: as above; assay type: cell-based; parameters: expressed in transfected cells; host or cells: mouse AtT20 FlpIn cells; details: for hCB2 Emax ±SEM: AtT20-hCB2, normalised to 1 μM CP55,940; for EC50: hCB2 EC50, AtT20-hCB2, value in brackets after pEC50
T2 sequence (P34972 whole entry): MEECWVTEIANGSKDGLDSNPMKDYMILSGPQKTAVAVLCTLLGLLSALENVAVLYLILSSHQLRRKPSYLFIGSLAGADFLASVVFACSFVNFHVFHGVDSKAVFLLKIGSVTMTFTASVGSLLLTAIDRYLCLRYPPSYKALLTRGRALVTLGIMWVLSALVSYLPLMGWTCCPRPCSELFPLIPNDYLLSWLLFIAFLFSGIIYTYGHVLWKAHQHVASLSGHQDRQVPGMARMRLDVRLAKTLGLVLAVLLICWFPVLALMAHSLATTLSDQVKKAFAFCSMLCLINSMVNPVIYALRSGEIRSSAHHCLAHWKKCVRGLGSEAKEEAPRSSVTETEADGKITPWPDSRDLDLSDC

human CB1 [3] = target: T1, human CB1; assay: competitive radioligand binding assay, displacement of [3H]CP55,940, HEK cell membranes; parameters: expressed in transfected cells; host or cells: HEK293 cells, P2 membrane preparation; details: [3H]CP55,940 1 nM
human CB2 [4] = target: T2, human CB2; assay: as above; parameters: expressed in transfected cells; host or cells: HEK293 cells, P2 membrane preparation; details: [3H]CP55,940 1 nM
[5] = hCB1 EC50, AtT20-hCB1, value in brackets after pEC50
[6] = hCB1 Ki, value in brackets after pKi
[7] = hCB2 Ki, value in brackets after pKi
[8] = hCB1 pKi ±SEM, mean ± SEM of 3 to 6 independent experiments
[9] = hCB2 pKi ±SEM, mean ± SEM of 3 to 6 independent experiments
[10] = hCB1 pEC50 ±SEM, AtT20-hCB1, DNC = did not converge, ND = < 50% change in fluorescence at 10 μM

## COC(=O)[C@@H](NC(=O)c1cn(CCCCC#N)c2ncccc12)C(C)C [Compound 22, methyl (1-(4-cyanobutyl)-1H-pyrrolo[2,3-b]pyridine-3-carbonyl)-L-valinate]
Human CB1 [1]; AtT20-hCB1
  hCB1 Emax ±SEM: 114 ± 7 % CP55,940
Human CB1 [1]; [5]
  EC50: 430 nM
Human CB2 [2]
  hCB2 Emax ±SEM: 95 ± 4 % CP55,940
  EC50: 68.3 nM
Human CB1 [3]; [6]
  Ki: 1510 nM
Human CB2 [4]; [7]
  Ki: 316 nM

## COC(=O)[C@@H](NC(=O)c1nn(CCCCF)c2ccccc12)C(C)C [Compound 36, methyl (1-(4-fluorobutyl)-1H-indazole-3-carbonyl)-L-valinate]
Human CB1 [1]; AtT20-hCB1
  hCB1 Emax ±SEM: 103 ± 2 % CP55,940
Human CB1 [1]; [5]
  EC50: 3.93 nM
Human CB2 [2]
  hCB2 Emax ±SEM: 100 ± 2 % CP55,940
  EC50: 3.76 nM
Human CB1 [3]; [8]
  Ki: 31.6 nM
Human CB2 [4]; [7]
  Ki: 1.6 nM
Human CB2 [4]; [9]
  Ki: 1.55 nM

## COC(=O)[C@@H](NC(=O)c1cn(CCCCC#N)c2ccccc12)C(C)C [Compound 17, methyl (1-(4-cyanobutyl)-1H-indole-3-carbonyl)-L-valinate]
Human CB1 [1]; AtT20-hCB1
  hCB1 Emax ±SEM: 105 ± 3 % CP55,940
Human CB1 [1]; [5]
  EC50: 50.8 nM
Human CB2 [2]
  hCB2 Emax ±SEM: 95 ± 3 % CP55,940
  EC50: 13.5 nM
Human CB1 [3]; [6]
  Ki: 159 nM
Human CB2 [4]; [7]
  Ki: 85.1 nM

## COC(=O)[C@@H](NC(=O)c1nn(CCCCC#N)c2ccccc12)C(C)C [Compound 6, methyl (1-(4-cyanobutyl)-1H-indazole-3-carbonyl)-L-valinate]
Human CB1 [1]; AtT20-hCB1
  hCB1 Emax ±SEM: 117 ± 6 % CP55,940
Human CB1 [1]; [5]
  EC50: 3.61 nM
Human CB2 [2]
  hCB2 Emax ±SEM: 101 ± 4 % CP55,940
  EC50: 2.14 nM
Human CB1 [3]; [6]
  Ki: 17.4 nM
Human CB2 [4]; [7]
  Ki: 6.46 nM

## N#CCCCCn1nc(C(=O)N[C@@H](Cc2ccccc2)C(N)=O)c2ccccc21 [Compound 13, (S)-N-(1-amino-1-oxo-3-phenylpropan-2-yl)-1-(4-cyanobutyl)-1H-indazole-3-carboxamide]
Human CB1 [1]; AtT20-hCB1
  hCB1 maximal response at 10 μM (footnote d): 104 % CP55,940
Human CB1 [1]; AtT20-hCB1, listed as APP-4CN-BUTINACA (13)
  hCB1 maximal response at 10 μM (footnote d): 104 ± 3^d % CP55,940
Human CB1 [1]; AtT20-hCB1, DNC = did not converge, ND = < 50% change in fluorescence at 10 μM
  hCB1 pEC50 ±SEM: DNC^b
Human CB2 [2]
  hCB2 Emax ±SEM: 107 ± 11 % CP55,940
  EC50: 74.1 nM
Human CB1 [3]; [6]
  Ki: 1100 nM
Human CB1 [3]; [8]
  Ki: 1070 nM
Human CB2 [4]; [7]
  Ki: 170 nM
Human CB2 [4]; [9]
  Ki: 166 nM

## COC(=O)[C@@H](NC(=O)c1cn(CCCCC#N)c2ncccc12)C(C)(C)C [Compound 23, methyl (S)-2-(1-(4-cyanobutyl)-1H-pyrrolo[2,3-b]pyridine-3-carboxamido)-3,3-dimethylbutanoate]
Human CB1 [1]; AtT20-hCB1
  hCB1 Emax ±SEM: 114 ± 5 % CP55,940
Human CB1 [1]; [5]
  EC50: 10.3 nM
Human CB2 [2]
  hCB2 Emax ±SEM: 106± 5 % CP55,940
  EC50: 12.6 nM
Human CB1 [3]; [6]
  Ki: 9.2 nM
Human CB1 [3]; [8]
  Ki: 9.33 nM
Human CB2 [4]; [7]
  Ki: 2.4 nM
Human CB2 [4]; [9]
  Ki: 2.45 nM

## COC(=O)[C@@H](NC(=O)c1nn(CCCCF)c2ccccc12)C(C)(C)C [Compound 8, methyl (S)-2-(1-(4-fluorobutyl)-1H-indazole-3-carboxamido)-3,3-dimethylbutanoate]
Human CB1 [1]; AtT20-hCB1
  hCB1 Emax ±SEM: 106 ± 3 % CP55,940
Human CB1 [1]; [10]
  EC50: 0.407 nM
Human CB2 [2]
  hCB2 Emax ±SEM: 103 ± 5 % CP55,940
  EC50: 3.28 nM
Human CB1 [3]; [6]
  Ki: 6.2 nM
Human CB2 [4]; [7]
  Ki: 0.1 nM
Human CB2 [4]; [9]
  Ki: 0.12 nM

## CC(C)[C@H](NC(=O)c1nn(CCCCC#N)c2ccccc12)C(N)=O [Compound 11, (S)-N-(1-amino-3-methyl-1-oxobutan-2-yl)-1-(4-cyanobutyl)-1H-indazole-3-carboxamide]
Human CB1 [1]; AtT20-hCB1
  hCB1 Emax ±SEM: 111 ± 5 % CP55,940
Human CB1 [1]; [5]
  EC50: 26.3 nM
Human CB2 [2]
  hCB2 Emax ±SEM: 103 ± 1 % CP55,940
  EC50: 4.97 nM
Human CB1 [3]; [6]
  Ki: 43.7 nM
Human CB2 [4]; [7]
  Ki: 24 nM

## COC(=O)[C@@H](NC(=O)c1cn(CCCCF)c2ccccc12)C(C)(C)C [Compound 7, methyl (S)-2-(1-(4-fluorobutyl)-1H-indole-3-carboxamido)-3,3-dimethylbutanoate]
Human CB1 [1]; AtT20-hCB1
  hCB1 Emax ±SEM: 114 ± 3 % CP55,940
Human CB1 [1]; [5]
  EC50: 3.43 nM
Human CB1 [1]; [10]
  EC50: 3.39 nM
Human CB2 [2]
  hCB2 Emax ±SEM: 110 ± 3 % CP55,940
  EC50: 2.87 nM
Human CB1 [3]; [6]
  Ki: 13.2 nM

## COC(=O)[C@@H](NC(=O)c1nn(CCCCC#N)c2ccccc12)C(C)(C)C [Compound 20, methyl (S)-2-(1-(4-cyanobutyl)-1H-indazole-3-carboxamido)-3,3-dimethylbutanoate]
Human CB1 [1]; AtT20-hCB1
  hCB1 Emax ±SEM: 113 ± 2 % CP55,940
Human CB1 [1]; [5]
  EC50: 0.72 nM
Human CB2 [2]
  hCB2 Emax ±SEM: 101 ± 2 % CP55,940
  EC50: 3.56 nM
Human CB1 [3]; [6]
  Ki: 1.29 nM
Human CB2 [4]; [7]
  Ki: 0.295 nM
